Test results from ChEMBL document CHEMBL1148758, “Guanidine and 2-aminoimidazoline aromatic derivatives as alpha(2)-adrenoceptor antagonists, 1: toward new antidepressants with heteroatomic linkers” (J Med Chem, 2007).

Tests used:
Type in all cases: functional
[1] = system: Rattus norvegicus; experiment: Increase in noradrenergic extracellular noradrenaline level in locally administered Sprague-Dawley rat by microdialysis assay
[2] = target: T1, Adrenergic receptor alpha-2 (Homo sapiens, UniProt P08913+P18825+P18089); experiment: Agonist activity at human brain adrenergic alpha2 receptor by [35S]GTPgammaS binding assay
T1 sequence (P08913 whole entry): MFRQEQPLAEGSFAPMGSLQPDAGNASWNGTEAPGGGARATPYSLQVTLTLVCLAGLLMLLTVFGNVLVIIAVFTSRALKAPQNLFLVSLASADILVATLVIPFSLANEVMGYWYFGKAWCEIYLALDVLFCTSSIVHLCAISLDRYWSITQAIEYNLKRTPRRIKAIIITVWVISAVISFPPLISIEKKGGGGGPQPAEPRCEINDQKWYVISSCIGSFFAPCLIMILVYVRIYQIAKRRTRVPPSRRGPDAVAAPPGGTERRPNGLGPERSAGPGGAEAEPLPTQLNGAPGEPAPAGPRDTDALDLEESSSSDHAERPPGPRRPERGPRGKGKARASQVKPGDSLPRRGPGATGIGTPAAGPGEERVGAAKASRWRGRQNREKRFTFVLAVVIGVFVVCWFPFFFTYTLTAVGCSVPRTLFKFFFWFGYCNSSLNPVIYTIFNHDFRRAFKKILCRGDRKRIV
T1 sequence (P18825 whole entry): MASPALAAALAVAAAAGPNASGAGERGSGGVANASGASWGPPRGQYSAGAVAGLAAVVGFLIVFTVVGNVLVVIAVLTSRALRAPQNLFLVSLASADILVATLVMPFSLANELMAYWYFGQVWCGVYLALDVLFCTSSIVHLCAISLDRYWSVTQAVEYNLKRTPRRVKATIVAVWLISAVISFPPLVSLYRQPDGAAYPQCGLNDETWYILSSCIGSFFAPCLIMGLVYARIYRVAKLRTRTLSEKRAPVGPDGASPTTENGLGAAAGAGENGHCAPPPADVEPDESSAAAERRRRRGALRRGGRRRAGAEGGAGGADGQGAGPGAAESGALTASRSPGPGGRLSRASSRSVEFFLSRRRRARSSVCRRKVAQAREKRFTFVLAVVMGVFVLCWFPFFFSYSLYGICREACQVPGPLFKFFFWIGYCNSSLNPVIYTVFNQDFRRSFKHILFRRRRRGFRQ
T1 sequence (P18089 whole entry): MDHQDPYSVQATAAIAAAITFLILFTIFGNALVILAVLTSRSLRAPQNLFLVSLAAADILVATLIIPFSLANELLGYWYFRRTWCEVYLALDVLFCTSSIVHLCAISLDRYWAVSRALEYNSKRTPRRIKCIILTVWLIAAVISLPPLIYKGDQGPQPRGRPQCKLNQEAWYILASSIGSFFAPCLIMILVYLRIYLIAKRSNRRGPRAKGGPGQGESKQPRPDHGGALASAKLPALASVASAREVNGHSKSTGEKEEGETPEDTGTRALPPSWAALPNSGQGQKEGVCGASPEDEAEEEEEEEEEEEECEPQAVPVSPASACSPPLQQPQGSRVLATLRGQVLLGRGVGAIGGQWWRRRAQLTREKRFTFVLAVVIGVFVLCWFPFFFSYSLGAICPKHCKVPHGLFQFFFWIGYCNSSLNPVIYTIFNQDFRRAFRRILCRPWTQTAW

[3] = target: T1, Adrenergic receptor alpha-2; experiment: Antagonist activity at human brain adrenergic alpha-2 receptor assessed as UK-14304-stimulated [35S]GTPgammaS binding at 10 uM
[4] = system: Rattus norvegicus; experiment: Increase in noradrenergic extracellular noradrenaline level in Sprague-Dawley rat at 8 mg/kg, ip by microdialysis assay; details: route intraperitoneal

Work on COC1(C2=NCCN2)COc2ccccc2O1 (stereo not drawn) yielded an Activity [1] of 287%.

In the case of COc1ccc(NC2=NCCN2)cc1, the EC50 [2] is reported as 30.4 µM.

With c1cc2c(cc1NC1=NCCN1)OCO2 the Activity [1] was 240%, the EC50 [3] was 141 µM and the Activity [4] was 328%.

With CN(C)c1ccc(NC2=NCCN2)cc1 the Activity [1] was 316% and the Activity [4] was 192%.

With c1ccc2c(c1)OCC(C1=NCCN1)O2 (stereo not drawn) [IDAZOXAN] the Activity [1] was 235%.
